Laboratory results as given in patent US20230414626A1, “INDUCTION OF FERROPTOSIS FOR CANCER THERAPY” (Memorial Sloan Kettering Cancer Center, priority 2020, published 2023).

Assays:
[1] = tested on: mTORC1 activity; test: Western blot of S6K phosphorylation (pT389 S6K); type: cell-based, human; conditions: RSL3 0.25 μM
Experimental: FIG. 7 A-J. PI3K-AKT-mTOR signaling regulates ferroptosis sensitivity. (A) Cells were treated as indicated. GDC-0941, 2 μM; MK-2206, 2 μM; RSL3, 1 μM; Fer-1, 1 μM. Lipid peroxidation was measured. (B) Cells were treated with indicated conditions. Torin, 1 μM; RSL3, 1 μM for MDA-MB-453 cells and 0.5 μM for BT474 cells; Fer-1, 1 μM. Cell death was measured. (C) Cells were treated with indicated conditions. RSL3, 10 μM for MCF cells and PC-3 cells, 5 μM for T47D cells, 1 μM for HepG2 cells; Torin, 1 μM; CCI-779, 0.5 μM. (D) Cells were treated as indicated. CCI-779, 0.5 μM; Torin, 1 μM; Fer-1, 1 μM. Cell death was staining by propidium iodide (PI) (red) or Sytox Green (green) (scale bar, 100 μm). (E-F) 3D spheroids for MDA-MB-453 cells and MCF7 cells were treated as indicated. CCI-779, 0.5 μM; RSL3, 1 μM for MDA-MB-453 cells and 5 μM for MCF7 cells; Fer-1, 1 μM. Top panels, cell death staining (scale bar, 100 m). Bottom panels, cell viability. (G) MDA-MB-453 cells were treated as indicated for 24 h. RSL3, 1 μM; CCI-779, 0.5 μM; GDC-0941, 2 μM; MK-2206, 2 μM; Dabrafenib, 2 μM; SCH772984, 2 μM; Fer-1, 1 μM. (H) Western blot was performed to detect RPTOR and RICTOR knockdown efficiency. (I) HT1080 cells and MDA-MB-231 cells (both with wild-type PI3K-AKT-mTOR pathway) were treated as indicated. RSL3, 0.1 μM for HT1080 and 0.25 μM for MDA-MB-231; Torin, 1 μM; CCI-779, 0.5 μM; Fer-1, 1 μM. Cell death was measured. (J) Two lines of PI3K-AKT-mTOR pathway wild-type cells (HT1080 and MDA-MB-231) and two lines of cells harboring activating mutation of the pathway (BT474 and MDA-MB-453) were treated as indicated. RSL3, 0.25 μM; Fer-1, 1 μM. Western blot was performed to detect the level of pT389 S6K.
Cell lysates were resolved on SDS-PAGE gels and transferred to a nitrocellulose membranes. The membranes were incubated in 5% skim milk for 1 hour at room temperature and then incubated with primary antibodies diluted in blocking buffer at 4° C. overnight. […]

[2] = tested on: HT1080 cells; test: Cell death quantification, PI3K-AKT-mTOR wild-type cells; type: cell-based, human; conditions: HT1080, wild-type PI3K-AKT-mTOR pathway; RSL3 0.1 μM; Torin 1 μM; CCI-779 0.5 μM
Experimental: (§1) FIG. 7 A-J. PI3K-AKT-mTOR signaling regulates ferroptosis sensitivity. (A) Cells were treated as indicated. GDC-0941, 2 μM; MK-2206, 2 μM; RSL3, 1 μM; Fer-1, 1 μM. Lipid peroxidation was measured. (B) Cells were treated with indicated conditions. Torin, 1 μM; RSL3, 1 μM for MDA-MB-453 cells and 0.5 μM for BT474 cells; Fer-1, 1 μM. Cell death was measured. (C) Cells were treated with indicated conditions. RSL3, 10 μM for MCF cells and PC-3 cells, 5 μM for T47D cells, 1 μM for HepG2 cells; Torin, 1 μM; CCI-779, 0.5 μM. (D) Cells were treated as indicated. CCI-779, 0.5 μM; Torin, 1 μM; Fer-1, 1 μM. Cell death was staining by propidium iodide (PI) (red) or Sytox Green (green) (scale bar, 100 μm). […] Cell death was measured. […]
(§2) Cells were seeded in plates at appropriate cell density and incubated overnight at 37° C. containing 5% C02, and then subjected to treatments as described in individual experiments. […] Culture plates were read by Cytation 5 at indicated time points. Percentage of cell death was calculated as Sytox Green-positive cell number over total cell number. For 3D spheroids, cell viability was determined a commercially available cell viability assay (Promega, Madison, WI, USA) following the manufacturer's instructions. Viability was calculated by normalizing ATP levels of samples to that of negative controls (spheroids in normal full media without treatment).

[3] = tested on: MDA-MB-231 cells; test: as above; type: cell-based, human; conditions: MDA-MB-231, wild-type PI3K-AKT-mTOR pathway; RSL3 0.25 μM; Torin 1 μM; CCI-779 0.5 μM
Experimental: as §1, §2

[4] = tested on: panel of human cancer cell lines with defined genetic mutations; test: Sensitivity of cancer cell line panel to RSL3 (cell death, Sytox Green); type: cell-based; conditions: cancer cells carrying PIK3CA activating mutation or PTEN deletion; 24-h treatment
Experimental: FIG. 1 A-D. Oncogenic activation of the PI3K-AKT-mTOR signaling pathway confers resistance to ferroptosis. (A) Genetic background of the analyzed cancer cell lines and their sensitivity to RSL3. (B) Cells were seeded in 96-well plate, 2×10^4 cells per well and incubated overnight. Cell death was induced by 24-h treatment of RSL3 with indicated concentrations. Cell death were measured by Sytox Green staining, as detailed in Methods. (C) Indicated protein components in the PI3K-AKT pathway were detected by western blot in indicated cell types. […] Cell death was measured. […]
To investigate the functional interplay between ferroptosis and signaling pathways frequently mutated in cancer, we analyzed a panel of human cancer cell lines with defined genetic mutations. […]
as §2, with “Viability was calculated by normalizing ATP levels of samples to that of negative controls (spheroids in normal full media without treatment).” left out

[5] = tested on: BT474 cells; test: Cell death quantification (Sytox Green), RSL3-induced ferroptosis; type: cell-based, human; conditions: fatty acid 0.5 mM, RSL3 0.5 μM, CCI-779 0.5 μM
Experimental: (§3) FIG. 1 A-D. Oncogenic activation of the PI3K-AKT-mTOR signaling pathway confers resistance to ferroptosis. (A) Genetic background of the analyzed cancer cell lines and their sensitivity to RSL3. (B) Cells were seeded in 96-well plate, 2×10^4 cells per well and incubated overnight. Cell death was induced by 24-h treatment of RSL3 with indicated concentrations. Cell death were measured by Sytox Green staining, as detailed in Methods. (C) Indicated protein components in the PI3K-AKT pathway were detected by western blot in indicated cell types. (D) Cells were treated with or without PI3K inhibitor GDC-0941 (2 μM), AKT inhibitor MK-2206 (2 μM), RSL3 (1 μM), or ferroptosis inhibitor Ferrostatin-1 (Fer-1, 1 μM) as indicated for 12 h (BT474) or 24 h (MDA-MB-453). Cell death was measured. Indicators for P values (same in all other figures): ****, P≤0.0001; *** P≤0.001; **, P≤0.01; *, P≤0.05; ns, P>0.05
(§4) FIG. 2 A-E. mTORC1, instead of mTORC2, suppresses ferroptosis. (A) MDA-MB-453 and BT474 were treated with CCI-779 (0.5 μM), RSL3 (1 μM for MDA-MB-453 cells and 0.5 μM for BT474 cells), and Fer-1 (1 μM) as indicated. (B) Cells were seeded in 6-well plate, 4×10^5 cells per well and incubated overnight. MDA-MB-453 and BT474 cells were treated as indicated. CCI-779, 0.5 μM; RSL3, 1 μM for MDA-MB-453 cells and 0.5 μM for BT474 cells; Fer-1, 1 μM. Cells were stained with 5 μM C1I-BODIPY followed by flow cytometry after 8 h-treatment. (C) 3D spheroids were treated as indicated. CCI-779, 0.5 μM; RSL3, 0.5 μM; Fer-1, 1 μM. Top panel, dead cells were stained by SYTOX Green (scale bar, 100 μm). Bottom panel, cell viability was assayed by measuring cellular ATP levels. (D) Cells expressing shRNAs targeting RPTOR or RICTOR were treated as indicated. CCI-779, 0.5 μM; RSL3, 0.5 μM; Fer-1, 1 μM. (E) Lipid peroxidation of samples as in panel D were measured.
(§5) FIG. 5 A-H. SREBP1 protects cells from ferroptosis through SCD1 activity. (A) The expression of SREBP1, and its targets SCD1, FASN, and ACACA, in control and SREBF1-sgRNA cells were detected by western blot. (B) The mRNA level of SREPF1 and its targets gene SCD were measured by RT-PCR. (C) Cells were pretreated with or without 5 μM CAY10566 overnight, and then subjected to the indicated treatments. RSL3, 0.5 μM for BT474 cells and 1 μM for MDA-MB-453 cells; CAY10566, 5 μM; Fer-1, 1 μM. (D) Cells expressing control or SCD-sgRNA were treated as indicated. RSL3, 1 μM for MDA-MB-453 cells and 0.5 μM for BT474 cells; Fer-1, 1 μM. (E) 3D spheroids derived from BT474 cells harboring control or SCD-sgRNA were treated as indicated. RSL3, 0.5 μM; CCI-779, 0.5 μM; Fer-1, 1 μM. Left, cell death staining (scale bar, 100 m). Right, cell viability. (F) SCD1 was overexpressed in BT474 cells and determined by western blot. Cells were treated as indicated. RSL3, 0.5 μM; CCI-779, 0.5 μM. (G) 3D spheroids derived from BT474 cells with control or SCD1 overexpression were treated as indicated. RSL3, 0.5 μM; CCI-779, 0.5 μM; Fer-1, 1 μM. Left, cell death staining (scale bar, 100 m). Right, cell viability. (H) Cells were treated as indicated. RSL3, 0.5 μM for BT474 and 1 μM for MDA-MB-453; CCI-779, 0.5 μM; Oleic acid (OA), 0.5 mM; stearic acid (SA), 0.5 mM.
(§6) FIG. 7 A-J. PI3K-AKT-mTOR signaling regulates ferroptosis sensitivity. (A) Cells were treated as indicated. GDC-0941, 2 μM; MK-2206, 2 μM; RSL3, 1 μM; Fer-1, 1 μM. Lipid peroxidation was measured. (B) Cells were treated with indicated conditions. Torin, 1 μM; RSL3, 1 μM for MDA-MB-453 cells and 0.5 μM for BT474 cells; Fer-1, 1 μM. Cell death was measured. (C) Cells were treated with indicated conditions. RSL3, 10 μM for MCF cells and PC-3 cells, 5 μM for T47D cells, 1 μM for HepG2 cells; Torin, 1 μM; CCI-779, 0.5 μM. (D) Cells were treated as indicated. CCI-779, 0.5 μM; Torin, 1 μM; Fer-1, 1 μM. Cell death was staining by propidium iodide (PI) (red) or Sytox Green (green) (scale bar, 100 μm). (E-F) 3D spheroids for MDA-MB-453 cells and MCF7 cells were treated as indicated. […]

[6] = tested on: MDA-MB-453 cells; test: as above; type: cell-based, human; conditions: fatty acid 0.5 mM, RSL3 1 μM, CCI-779 0.5 μM
Experimental: as §3, §4, §5, §6

[7] = wild-type cells (HT1080 and MDA-MB-231), Fer-1 1 μM

Structure (SMILES) | mTORC1 activity as measured by S6K phosphorylation [1, 7] | mTORC1 activity as measured by S6K phosphorylation ([1]; cells harboring pathway mutation (BT474 and MDA-MB-453)) | ferroptosis induction (cell death) [2] | ferroptosis induction (cell death) [3] | sensitivity to ferroptosis induction by RSL3 [4] | ferroptosis resistance upon treatment of CCI-779 plus RSL3 (fatty acid supplementation) [5] | ferroptosis resistance upon treatment of CCI-779 plus RSL3 (fatty acid supplementation) [6]
CCOC(=O)c1ccc(NC2CCCCC2)c(N)c1 [ferrostatin-1] | prevented RSL3-triggered inactivation of mTORC1 activity | – | – | – | – | – | –
COC(=O)c1ccc([C@@H]2c3[nH]c4ccccc4c3C[C@@H](C(=O)OC)N2C(=O)CCl)cc1 [RSL3] | inhibited | retained active mTORC1 | sufficient to induce ferroptosis | sufficient to induce ferroptosis | more resistant | – | –
CCCCCCCC/C=C\CCCCCCCC(=O)O [oleate acid] | – | – | – | – | – | resulted in ferroptosis resistance | resulted in ferroptosis resistance
CCCCCC/C=C\CCCCCCCC(=O)O [palmitoleic acid] | – | – | – | – | – | resulted in ferroptosis resistance | resulted in ferroptosis resistance
